Experimental data as given in patent publication US6632421B2, “Deodorant composition comprising a water-soluble zinc salt as odor-absorbing agent” (L'Oreal, priority 1996, dated 2003).

Test: odour absorption test with respect to natural sweat (sniff test on flasks)
Design: species or system human
Description: An odour absorption test was carried out with respect to natural sweat.
The axillary sweat from a number of people was thus removed in a sauna and combined to produce a sweat sample. In order to obtain the characteristic nauseating smell of sweat, before introducing the active substance, this sweat sample was incubated for 14 hours at a temperature of 37° C. 1 ml of the incubated sweat sample was introduced into each flask of active substance to be tested and into a control flask (without active substance). The active substance: 5.5 mg of Zn ion in the form of zinc pidolate, zinc chloride, zinc gluconate, zinc lactate, zinc phenolsulphonate and zinc sulphate, was then introduced respectively into each of the flasks of active substance to be tested.
The flasks were then incubated for a second time for 24 hours at a temperature of 37° C. and then for a third time for 3 days at room temperature.
Eight judges then smelled (“sniff test”) each of these flasks and graded the intensity of the smell on a scale from 0 to 4.

Compound | intensity of the smell, grade on a scale from 0 to 4 (0=no smell, 4=strong smell) (5.5 mg of Zn ion in 1 ml incubated sweat, 24 hours at 37° C. then 3 days at room temperature, eight judges, control flask graded 4) | absorption effect on the smell of sweat (sample containing a bactericide, check that the test is truly an odour absorption test)
zinc pyrrolidonecarboxylate [zinc pidolate] | best results | –
Oc1cc(Cl)ccc1Oc1ccc(Cl)cc1Cl [triclosan, 5-chloro-2-(2,4-dichlorophenoxy)phenol] | – | no absorption effect
